Measurements from EP3436024B1, “3-BETA-METHOXY-PREG FOR USE IN THE TREATMENT OF TREATMENT RESISTANT DEPRESSION” (Mapreg, priority 2016, dated 2017).

What was measured:
PC12 cells = experiment: Stimulation of neuritic sprouting; format: cell-based; details: PC12 cells differentiated with NGF (10 ng/ml), steroid 30 µM, 3 days; relative to PREG
Description: Stimulation of neuritic sprouting is conducted on PC12 cells differentiated in the presence of NGF (10 ng/ml) and the steroid being tested (30 µM) for 3 days. For each condition, the average length of the longest 200 neurites […] is measured simultaneously for 3 cultures.

[1] = molecular target: T1, Muscarinic (Cholinergic) M2 (Homo sapiens, UniProt P08172); experiment: CNS receptor binding assay, M2; details: MAP4343 10 µM; [^3H] AF-DX 384; Human recombinant (CHO cells); read-out: % Inhibition of control specific binding
T1 construct: expressed in transfected cells; host or cells: CHO cells
T1 sequence (P08172 whole entry): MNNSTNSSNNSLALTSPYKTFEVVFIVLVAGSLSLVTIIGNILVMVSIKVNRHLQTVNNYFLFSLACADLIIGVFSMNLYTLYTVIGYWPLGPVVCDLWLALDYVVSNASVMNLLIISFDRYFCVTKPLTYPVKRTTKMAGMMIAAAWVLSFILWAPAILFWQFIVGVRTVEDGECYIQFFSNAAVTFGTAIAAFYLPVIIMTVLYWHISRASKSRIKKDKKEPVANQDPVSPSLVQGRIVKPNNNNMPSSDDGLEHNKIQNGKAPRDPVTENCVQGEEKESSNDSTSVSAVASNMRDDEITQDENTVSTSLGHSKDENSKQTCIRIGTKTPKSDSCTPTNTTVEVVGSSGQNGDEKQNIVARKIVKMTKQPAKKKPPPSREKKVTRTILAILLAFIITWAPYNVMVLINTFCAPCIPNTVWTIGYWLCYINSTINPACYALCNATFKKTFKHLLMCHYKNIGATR
Description: MAP4343 has been screened for in vitro affinity to 80 different CNS neurotransmitters receptors using various validated binding assays.
Table 4. In vitro affinity of MAP4343 (10 µM) for CNS neurotransmitter receptors associated with side effects and/or abuse liability. Data are the average of two individual assays for each receptor and are expressed as % inhibition of the control specific binding of the reference compound. Results showing an inhibition higher than 50% are considered to represent significant effects of the test compound.

Wistar Kyoto (WKY) rats = experiment: Elevated-plus maze (EPM), WKY rats; format: in vivo, rat; details: acute, MAP4343 10 mg/kg s.c., fluoxetine 10 mg/kg, ketamine 30 mg/kg i.p., Fig. 5D
Description: After a 6-day period of acclimatization, all experimental groups received daily successive subcutaneous (250 µl per rat) and intraperitoneal (1 ml/kg) injections. WI rats received injection of vehicle (sesame oil + saline) while WKY rats were randomly assigned to […], as follow: KWY rats receiving only vehicle (sesame oil + saline) and WKY rats treated with MAP4343 (10 mg/kg, s.c.; rats received in parallel i.p. injections of saline), fluoxetine (10 mg/kg i.p., rats received in parallel s.c. injections of sesame oil) or ketamine (30 mg/kg, i.p.; rats received in parallel s.c. injections of sesame oil) (see Figure 3).
After, a 6-day period of acclimatization, the acute phase of treatment started for 4 days during behavioral tests were performed (Figure 3). All animals were injected 1h30 before the starting of behavioral test.
We used the elevated-plus maze (EPM) as an assay of anxiety-related behavior in rodents (Walf and Frye, 2007). Rats were initially placed in the center of the plus-maze, consisting of two open arms (50 x 10 cm) and two closed arms (50 x 10 cm enclosed by 40 cm walls), in a 50 lux illuminated room and videotaped during 5 min using a computerized system (VideoTrack V2.5, ViewPoint, Lyon, France). The time spent in the open versus closed arms was blindly measured by two independent experimenters from the recorded video, and the open arm-index was calculated as follow: time in the open arms (sec) / [time in open arms (sec) + time in closed arms (sec)].

**Q.** With `CO[C@H]1CC[C@@]2(C)C(=CC[C@H]3[C@@H]4CC[C@H](C(C)=O)[C@@]4(C)CC[C@@H]32)C1` (stereo in doubt) [MAP4343, 3β-methoxy-pregna-5-ene-20-one] as the compound, how does the Neuritic sprouting (PC12 cells) read?
**A.** The Neuritic sprouting was “+++”.

**Q.** And the inhibition at 10 µM [1]?
**A.** The inhibition at 10 µM was 20%.

**Q.** What about the “open-arm (OA) index, change when compared to WKY receiving vehicle alone” value (Wistar Kyoto (WKY) rats) of the same compound?
**A.** The value was 165%.
